Consider 40 compounds from patent US11279703B2, “Fused pyrimidine compounds as BRD4 and JAK2 dual inhibitors and methods for use thereof” (APTOSE BIOSCIENCES INC., priority 2016, dated 2022).

The target in assay [1] is JAK2 (Homo sapiens (Human), UniProt O60674). Description: HTRF kinase assay, JAK2. The class given is biochemical. Conditions: Table 6. The text has this:
A kinase assay with HTRF was used to observe JAK activity and calculate the IC50s of compounds disclosed herein. HTRF is an enzymatic assay used to determine the amount of phosphorylated peptide. FRET (Fluorescence Resonance Energy Transfer) is based on the transfer of energy between two fluorophores—a donor and an acceptor—when in close proximity. Molecular interactions between biomolecules can be assessed by coupling each partner with a fluorescent label and by detecting the level of energy transfer. The amount of phopshorylated peptide can be detected using a combination of a Eu 3+Cryptate labeled anti-phospho residue antibody, SA-XL665 and a biotinylated substrate. The signal is proportional to the concentration of phospho-residues.
Equipment Required • 1. […] Plate centrifuge • 3. Plate shaker • 4. […] Single channel and multi-channel pipettes • 6. Microplate reader (Pherastar)]
Stock and Final Assay Concentrations (FAC) • 1. All reference and test compounds are made at a concentration of 10 mM in DMSO. Compounds are serially diluted in DMSO and a FAC starting from 10 μM to 10 point 3 fold serial dilutions is arrived. For Ruxolitinib the starting FAC is 1 μM. FAC of DMSO is 1%. • 2. Enzyme stock and FAC
• JAK-1: Invtirogen Cat: PR8767C • JAK-2: Invtirogen Cat: PR7820B • JAK-3: Invtirogen Cat: PR7507B • 3. Substrate (synthetic peptide-Biotinylated-N-terminal tag-[…] from Biopeptide) stock and FAC
• Adenosine 5′-triphosphate disodium salt hydrate: Sigma Cat: A26209 • 5. […] Buffers • Base buffer (for 50 ml)
• HTRF buffer: • 50 mM Tris-HCl, pH—7.5 • 100 mM NaCl • 0.1% BSA • 0.05% Tween20 • 0.5 mM EDTA
To a 384 well black-plate: • 1. Add 17 μL of the buffer to each well of the 384-well black plate • 2. […] Add 5 μl of the enzyme to each well of the plate • 4. Add 10 μl of the substrate and ATP mix to all the wells • 5. Cover with plate sealer • 6. […] Incubate at room temperature for 1 hour on shaker • 8. […] Add 37.5 μL of the HTRF mix to these wells. • 9. Incubate the plate at room temperature on shaker for 45 minutes. • 10.
The percent inhibition is calculated in the excel analysis template and the IC50 values are subsequently determined using a sigmoidal dose-response curve (variable slope) using GraphPad Prism® 5 software.
Background: Time-resolved FRET reads energy transfer from a long-lived donor to a nearby acceptor.

Assay [2] concerns the target BRD4-BD1 (Homo sapiens (Human), UniProt O60885). Description: AlphaLisa bromodomain binding assay, BRD4-BD1. Conditions: Table 6; read-out: BRD4(1) IC50.

JAK2, sequence (O60674 whole entry): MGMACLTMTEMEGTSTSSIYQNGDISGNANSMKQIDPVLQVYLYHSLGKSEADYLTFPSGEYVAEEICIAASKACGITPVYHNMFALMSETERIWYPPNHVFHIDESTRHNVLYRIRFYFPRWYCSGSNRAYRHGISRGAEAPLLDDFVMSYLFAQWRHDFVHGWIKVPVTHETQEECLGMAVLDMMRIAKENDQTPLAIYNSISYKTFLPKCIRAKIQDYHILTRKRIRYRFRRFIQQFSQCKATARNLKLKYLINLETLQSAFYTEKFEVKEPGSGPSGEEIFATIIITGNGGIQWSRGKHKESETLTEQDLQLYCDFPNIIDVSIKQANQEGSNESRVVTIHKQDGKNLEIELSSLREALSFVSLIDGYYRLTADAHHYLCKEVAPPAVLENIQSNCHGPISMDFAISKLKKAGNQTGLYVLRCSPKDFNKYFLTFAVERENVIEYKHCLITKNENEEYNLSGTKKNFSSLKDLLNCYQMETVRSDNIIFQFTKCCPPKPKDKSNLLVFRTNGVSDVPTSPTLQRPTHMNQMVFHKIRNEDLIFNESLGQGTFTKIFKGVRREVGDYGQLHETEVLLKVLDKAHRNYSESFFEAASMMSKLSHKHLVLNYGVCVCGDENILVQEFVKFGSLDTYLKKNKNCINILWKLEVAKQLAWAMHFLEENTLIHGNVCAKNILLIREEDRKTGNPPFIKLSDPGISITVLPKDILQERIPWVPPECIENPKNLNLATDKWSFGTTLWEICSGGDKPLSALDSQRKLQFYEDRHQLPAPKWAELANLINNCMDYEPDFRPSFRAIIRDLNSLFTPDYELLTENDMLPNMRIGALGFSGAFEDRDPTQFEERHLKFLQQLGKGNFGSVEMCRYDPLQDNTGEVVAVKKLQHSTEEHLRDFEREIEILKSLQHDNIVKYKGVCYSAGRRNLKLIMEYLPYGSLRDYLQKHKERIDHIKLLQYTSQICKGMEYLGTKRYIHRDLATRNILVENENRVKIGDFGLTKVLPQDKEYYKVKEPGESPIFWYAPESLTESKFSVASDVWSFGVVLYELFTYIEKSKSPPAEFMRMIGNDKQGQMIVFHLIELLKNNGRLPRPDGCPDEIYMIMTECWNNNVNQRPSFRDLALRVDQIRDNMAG

As for `CNC1CCN(c2ccc(Nc3ncc4scc(-c5ccc(F)c(NS(=O)(=O)C(C)(C)C)c5)c4n3)cc2F)CC1` [drawing 459], the results for the IC50 in assay [1] and in assay [2] were 21 nM and 308 nM, respectively.

As to `CN1CCN(c2ccc(Nc3nc(Nc4cccc(NS(=O)(=O)C(C)(C)C)c4)c4ncsc4n3)cc2)CC1`, the figures for the IC50 in assay [1] and in assay [2] were 10000 nM and 1540 nM, respectively.

As to `Cc1cnc(Nc2ccc(N3CCN(C)CC3)cc2)nc1Nc1cccc(NS(=O)(=O)C(C)(C)C)c1` [drawing 396], the IC50 in assay [1] came to 7 nM; in assay [2], 155 nM.

In the case of `CC(=O)N1CCN(c2ccc(Nc3ncc4ccn(-c5cccc(NS(=O)(=O)C6CC6)c5)c4n3)cc2)CC1`, the IC50 was determined as 24900 nM in assay [1] and 5730 nM in assay [2].

Take `COc1nc(Nc2ccc(N3CCN(C)CC3)cc2)nc2c1ccn2-c1cccc(NS(=O)(=O)C(C)(C)C)c1`: the results for the IC50 in assay [1] and in assay [2] were 10000 nM and 5160 nM, respectively.

`CNC1CCN(c2ccc(Nc3ncc4ccn(-c5cccc(NS(=O)(=O)C(C)(C)C)c5)c4n3)cc2)C1` (centres unmarked): the IC50 was 17 nM in assay [1] and 538 nM in assay [2].

For the compound `CN1CCC(NC(=O)c2ccc(Nc3ncc4ccn(-c5ccc(F)c(NS(=O)(=O)C(C)(C)C)c5)c4n3)cc2F)CC1` [drawing 335], the IC50 in assay [1] worked out at 360000 nM; in assay [2], 94 nM.

Turning to `Cc1cnc(Nc2ccc(N3CCN(C)CC3)cc2)nc1Nc1cccc(NS(=O)(=O)C(C)(C)C)c1` [drawing 292], the IC50 is 9 nM in assay [1] and 280 nM in assay [2].

Regarding `CN(C)C1CCN(Cc2ccc(Nc3ncc4ccn(-c5ccc(F)c(NS(=O)(=O)C(C)(C)C)c5)c4n3)cc2F)CC1`, the IC50 in assay [1] came out at 265 nM; in assay [2], 105 nM.

In the case of `CNC1CCN(C(=O)c2ccc(Nc3ncc4ccn(-c5cccc(NS(=O)(=O)C(C)(C)C)c5)c4n3)cc2F)CC1`, the values for the IC50 in assay [1] and in assay [2] were 29 nM and 234 nM, respectively.

Regarding `CC(C)(C)S(=O)(=O)Nc1cccc(-n2ccc3cnc(Nc4ccc5c(c4)CC4CNCCN54)nc32)c1` (centres unmarked) [drawing 404], the figures for the IC50 in assay [1] and in assay [2] were 18 nM and 393 nM, respectively.

In the case of `CN1CCN(C(=O)c2ccc(Nc3ncc4ccn(-c5cccc(NS(=O)(=O)C(C)(C)C)c5)c4n3)cc2)CC1`, the values for the IC50 in assay [1] and in assay [2] were 28 nM and 771 nM, respectively.

For `CC(C)(C)S(=O)(=O)Nc1cccc(-n2ccc3cnc(Nc4ccc5c(c4)CC4CNCCN54)nc32)c1` (centres unmarked) [drawing 411], the results for the IC50 in assay [1] and in assay [2] were 13 nM and 306 nM, respectively.

Take `CN1CCN(c2ccc(Nc3ncc4ccn(-c5cccc(NS(=O)(=O)C6CC6)c5)c4n3)cc2)CC1` [drawing 356]: the values for the IC50 in assay [1] and in assay [2] were 8 nM and 1800 nM, respectively.

Regarding `CN1CCN(c2ccc(Nc3ncc4ccn(-c5ccc6c(c5)CCN6S(=O)(=O)C(C)(C)C)c4n3)cc2)CC1` [drawing 398], the values for the IC50 in assay [1] and in assay [2] were 0.6 nM and 10000 nM, respectively.

Turning to `CN1CCN2c3ccc(Nc4ncc5ccn(-c6ccc(F)c(NS(=O)(=O)C(C)(C)C)c6)c5n4)cc3CC2C1` (centres unmarked), the IC50 in assay [1] is 137 nM; in assay [2] it was 321 nM.

With `CN1CCC(Nc2nc(Nc3cccc(N(C)S(=O)(=O)C(C)(C)C)c3)c3ccsc3n2)CC1`, the figures for the IC50 in assay [1] and in assay [2] were 10000 nM and 940 nM, respectively.

Consider `Cc1cnc(Nc2ccc(N3CCN(C)CC3)cc2)nc1Nc1cccc(NS(=O)(=O)C(C)(C)C)c1` [drawing 226], for which the IC50 was 7 nM in assay [1] and 221 nM in assay [2].

Take `CN(C)C1CCN(c2ccc(Nc3ncc4scc(-c5cccc(NS(=O)(=O)C(C)(C)C)c5)c4n3)cc2F)CC1`: the IC50 in assay [1] was 4 nM; in assay [2], 297 nM.

As for `CC1(C)CNCCC1Nc1cc(Nc2cccc(NS(=O)(=O)C(C)(C)C)c2)c2ccsc2c1` (centres unmarked), the IC50 in assay [1] came to 10000 nM; in assay [2], 2830 nM.

As for `CNCC1CCN(c2ccc(Nc3ncc4ccn(-c5cccc(NS(=O)(=O)C(C)(C)C)c5)c4n3)cc2F)CC1`, the IC50 was found to be 7 nM in assay [1] and 220 nM in assay [2].

With `O=C(NC1CCNCC1)c1ccc(Nc2ncc3ccn(-c4cccc(NS(=O)(=O)C5CC5)c4)c3n2)cc1F`, the IC50 in assay [1] was found to be 69 nM; in assay [2] it was 1590 nM.

For the compound `CN1CCN(C(=O)Cc2ccc(Nc3ncc4ccn(-c5cccc(NS(=O)(=O)C6CC6)c5)c4n3)cc2)CC1`, the results for the IC50 in assay [1] and in assay [2] were 182 nM and 4010 nM, respectively.

With `CC(C)(C)S(=O)(=O)Nc1cc(Nc2nc(NC3CCNCC3)nc3ccsc23)ccc1Cl`, the IC50 in assay [1] amounted to 10000 nM; in assay [2] it was 3270 nM.

Consider `COc1cc(Nc2ncc3ccn(-c4cccc(NS(=O)(=O)C(C)(C)C)c4)c3n2)ccc1N1CCC(N(C)C)CC1`, for which the IC50 came out at 2 nM in assay [1] and 421 nM in assay [2].

For `Cc1ccc(-n2ccc3cnc(Nc4ccc(N5CCN(C)CC5)cc4)nc32)cc1NS(=O)(=O)C(C)(C)C`, the IC50 worked out at 230 nM in assay [1] and 680 nM in assay [2].

In the case of `CN(C)C1CCN(Cc2ccc(Nc3ncc4ccn(-c5cccc(NS(=O)(=O)C(C)(C)C)c5)c4n3)cc2F)CC1`, the IC50 in assay [1] came out at 51 nM; in assay [2] it was 145 nM.

As to `CC(C)(C)S(=O)(=O)Nc1cccc(Nc2nc(NC3CCNCC3)nc3sccc23)c1` [drawing 406], the results for the IC50 in assay [1] and in assay [2] were 10000 nM and 1200 nM, respectively.

Turning to `Cc1cnc(Nc2ccc(N3CCN(C)CC3)cc2)nc1Nc1cccc(NS(=O)(=O)C(C)(C)C)c1` [drawing 405], the IC50 in assay [1] is 14 nM; in assay [2] it was 208 nM.

Take `CN(C)C1CCN(c2ccc(Nc3ncc4ccn(-c5cccc(NS(=O)(=O)C(C)(C)C)c5)c4n3)cc2F)CC1` [drawing 371]: the IC50 in assay [1] is 3 nM; in assay [2] it was 131 nM.

For the compound `CNCCOc1ccc(Nc2ncc3ccn(-c4cccc(NS(=O)(=O)C(C)(C)C)c4)c3n2)cc1F` [drawing 460], the IC50 in assay [1] stood at 50 nM; in assay [2], 2300 nM.

For `CNC1CCN(C(=O)c2ccc(Nc3ncc4scc(-c5cccc(NS(=O)(=O)C(C)(C)C)c5)c4n3)cc2F)CC1`, the figures for the IC50 in assay [1] and in assay [2] were 12 nM and 298 nM, respectively.

On to `CN(C)C1CCN(C(=O)c2ccc(Nc3ncc4ccn(-c5ccc(F)c(NS(=O)(=O)C(C)(C)C)c5)c4n3)cc2F)CC1`, for which the figures for the IC50 in assay [1] and in assay [2] were 170 nM and 123 nM, respectively.

With `CNC1CCN(c2ccc(Nc3ncc4ccn(-c5cccc(NS(=O)(=O)C(C)(C)C)c5)c4n3)cc2F)CC1`, the IC50 stood at 6 nM in assay [1] and 357 nM in assay [2].

Consider `CN(C)C1CCN(c2ccc(Nc3ncc4ccn(-c5ccc(F)c(NS(=O)(=O)C6(C)CC6)c5)c4n3)cc2F)CC1`, for which the IC50 in assay [1] turned out to be 20 nM; in assay [2], 248 nM.

With `CC(C)(C)S(=O)(=O)Nc1cccc(-n2ccc3cnc(Nc4ccc(N5CCN(S(C)(=O)=O)CC5)cc4)nc32)c1`, the IC50 was 40 nM in assay [1] and 4600 nM in assay [2].

As for `CN(C)C1CCN(c2ccc(Nc3ncc4ccn(-c5ccc(F)c(NS(=O)(=O)C(C)(C)C)c5)c4n3)cc2F)CC1` [drawing 373], the IC50 in assay [1] was 27 nM; in assay [2], 153 nM.

Regarding `COc1cc(Nc2ncc3scc(-c4cccc(NS(=O)(=O)C(C)(C)C)c4)c3n2)ccc1N1CCNCC1`, the IC50 was 4 nM in assay [1] and 356 nM in assay [2].

Take `Cc1cnc(Nc2ccc(N3CCN(C)CC3)cc2)nc1Nc1cccc(NS(=O)(=O)C(C)(C)C)c1` [drawing 196]: the IC50 in assay [1] came to 10 nM; in assay [2], 180 nM.

`CN1CCN(c2ccc(Nc3ncc4ccn(-c5ccccc5NS(=O)(=O)C(C)(C)C)c4n3)cc2)CC1`: the IC50 in assay [1] stood at 2400 nM; in assay [2], 10000 nM.

For orientation: IC50 means the concentration needed to halve the response being measured.
